Reference: article PMC4007695 (Cell reports, 2013)
pIC50: −log10 of the molar value.

Columns and labels:
wt-TOR2 (TOR2 kinase) = wt-TOR2 (TOR2 kinase) (Saccharomyces cerevisiae, UniProt P32600); assay: in vitro kinase assay of purified TORC2 at […] ATP; assay type: biochemical
[1] = molecular target: as-TOR2 (TOR2 kinase, analog-sensitive allele) (Saccharomyces cerevisiae, UniProt P32600, L2178A); assay: in vitro kinase assay of purified TORC2 at […] ATP; assay type: biochemical

Cn1c(=O)n(-c2ccc(C(C)(C)C#N)cc2)c2c3cc(-c4cnc5ccccc5c4)ccc3ncc21 [BEZ235]
pIC50 (wt-TOR2 (TOR2 kinase)): 6.95 | pIC50 [1]: 7.30
